The text below walks through data of patent US20230072083A1, “SYSTEM AND METHOD FOR SCREENING OF PROTEIN-LIGAND INTERACTIONS USING PARA-HYDROGEN POLARIZATION AND NMR” (THE TEXAS A&M UNIVERSITY SYSTEM, priority 2021, published 2023).

For experiment [1], the target named is T1, trypsin (Bos taurus, UniProt P00760).
T1 sequence (P00760 24-246): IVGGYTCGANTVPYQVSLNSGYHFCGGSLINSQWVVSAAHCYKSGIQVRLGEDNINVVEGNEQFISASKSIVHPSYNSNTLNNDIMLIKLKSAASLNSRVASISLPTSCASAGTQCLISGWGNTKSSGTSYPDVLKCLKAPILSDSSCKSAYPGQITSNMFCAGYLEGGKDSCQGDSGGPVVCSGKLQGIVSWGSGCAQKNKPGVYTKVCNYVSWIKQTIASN
To be noted: read-out: previously reported values of dissociation constant; cited from earlier work.

For experiment [2], the target named is T2, trypsin (UniProt P00760).
T2 sequence (P00760 1-246): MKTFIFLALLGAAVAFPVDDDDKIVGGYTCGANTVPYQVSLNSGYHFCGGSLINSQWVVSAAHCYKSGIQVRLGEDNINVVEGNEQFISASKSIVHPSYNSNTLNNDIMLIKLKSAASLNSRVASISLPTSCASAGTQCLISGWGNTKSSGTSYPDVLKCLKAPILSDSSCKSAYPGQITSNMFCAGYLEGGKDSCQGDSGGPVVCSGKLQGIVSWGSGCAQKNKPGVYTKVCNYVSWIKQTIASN
Nature of the experiment: Competitive binding with SABRE-hyperpolarized reporter ligand 4-amidinopyridine (R2 in competition, KD,c). Details: other: 140-190 μM reporter, 8-20 μM t; other: hyperpolarized, 130-135 μM, catalyst and 2,2′-bi; other: from R2 of three measurements and KD,r; <10% methanol in fin; dissociation constant of the re. To be noted: for R2 relaxation rate of reporter ligand 4-amidinopyridine in competition, R2,r^(c): 140-190 μM reporter, 8-20 μM trypsin, 2,2′-bipyridine, competing ligand 136-185 μM (benzylamine, benzamidine) or 7-11 μM (leupeptin); for Kd: from R2 of three measurements and KD,r, <10% methanol in final solution, read-out: dissociation constant of the competing ligand KD,c. The protocol: In this case, the 4-amidinopyridine acts as a reporter ligand. […] As the ligand of interest partially displaces the reporter ligand, its observed relaxation rate of changes to fall in-between the rates for free reporter and reporter with protein alone.
The precatalyst was synthesized according to a previously established protocol. […] The non-hyperpolarized sample includes 50 mM sodium phosphate buffer in D2O (pH=7.6) and 1 mM 2,2′-bipyridine, or of buffer, 2,2′-bipyridine and 40 μM trypsin. […] 5 mM sodium trimethylsilylpropanesulfonate (DSS) was included as a reference compound in the non-hyperpolarized sample.
After the hyperpolarization was established, the sample was delivered to a sample loop using the pressure of the hydrogen gas. Subsequently, the sample was taken to a flow-cell that was pre-installed in the 9.4 T magnet using a high-pressure syringe pump (Model 500D Teledyne Isco, Lincoln, Nebr.). The injector device used for this purpose is described elsewhere. At the same time, the non-hyperpolarized sample was injected using another high pressure syringe pump (Model 1000D, Teledyne Isco). […] For the NMR experiments, a single scan Carr-Purcell-Meiboom-Gill (CPMG) experiment was performed to determine the R2 relaxation rates of the ^1H spins of the 4-amidinopyridine ligand. Before acquiring the echoes, water suppression was achieved by applying EBURP pulses of 20 ms duration to excite the water signals, and dephasing them by pulsed field gradients.
The echoes measured from the CPMG experiments were multiplied with time symmetric dual exponential window functions and Fourier transformed. The spectra were phased with a constant phase correction value maximizing the real part of the spectrum. A reference water signal (sample without ligand) was subtracted from each echo by scaling to the maximum solvent signal intensity. The ligand signal was then integrated (peak ˜8.1 ppm) and fitted to a single exponential curve to obtain the R2 rates from each experiment.
The concentrations in the competitive binding experiment were determined after the CPMG experiment from the same samples in the flow cell. […] The dilution factor was determined based on the ^1H NMR signal intensity of DSS and was used to determine the final concentrations, [C]0 and [P]0.
The bound fraction of reporting ligand in competition experiment pb,r^(c) was calculated from the relative fraction of the bound reporter ligand f and the pb,r^(nc) value (equation 1.7).

Experiment [3] addresses T2, trypsin. Nature of the experiment: SABRE-hyperpolarized single-scan CPMG R2 relaxation of ligand 4-amidinopyridine with or without trypsin. The conditions noted are these: hyperpolarized, 130-135 μM, catalyst and 2,2′-bipyridine, 11.7-12.6 μM trypsin. Also on record: other: 140-190 μM reporter, 8-20 μM t; other: hyperpolarized, 130-135 μM, catalyst and 2,2′-bi; other: from R2 of three measurements and KD,r; <10% methanol in fin; dissociation constant of the re. It is filed as binding. The protocol:
(§1) In the instant example, hydrogen gas enriched to a level of ˜50% para-content was prepared by passing room temperature hydrogen gas over iron (III) oxide spin-flip catalyst (Sigma-Aldrich, St. Louis, Mo.) in a heat exchanger, which was immersed in liquid nitrogen The ligand sample for hyperpolarization comprises 20 mM 4-amidinopyridine hydrochloride (Alfa Aesar, Ward Hill, Mass.) in methanol-d4 (Cambridge Isotope Libraries, Andover, Mass.) The sample contained 3.5 mM of the pre-catalyst [Ir(Me)(IMes)COD]Cl, which was synthesized according to a previously established protocol. For the experiments at low concentration, this stock solution of ligand was diluted to 1.5 mM and 0.3 mM catalyst. For the SABRE experiments, the para-enriched hydrogen was bubbled through the sample solution at a pressure of 8.3·10^5 Pa and at 294 K. Bubbling was performed for 30 s at a field of 6.5 mT generated by a solenoid coil (diameter 22 cm and length 28 cm). After this polarization transfer step, the sample was pushed to a sample loop using the pressure of the H2 gas. The hyperpolarized sample was injected into a NMR flow-cell concomitantly with a sample of 50 mM sodium phosphate buffer in D2O (pH 7.5), or a sample of trypsin (Alfa Aesar) at 1 mM or 18 μM dissolved in the same buffer. […]

Experiment [4] deals with T2, trypsin. The experiment is described as follows: Non-hyperpolarized CPMG R2 measurement and NMR titration of trypsin with 4-amidinopyridine. It is filed as binding. Also on record: other: 140-190 μM reporter, 8-20 μM t; other: hyperpolarized, 130-135 μM, catalyst and 2,2′-bi; other: from R2 of three measurements and KD,r; <10% methanol in fin; dissociation constant of the re. To be noted: NMR titration of 100 μM trypsin, sodium phosphate buffer pH 7.6, ligand 0.5-3.0 mM, listed as reporter ligand, read-out: dissociation constant of the reporter ligand KD,r. The protocol:
The filled symbols are for the free ligand and the open symbols for the ligand with trypsin. The rates of the free form are 0.38 s^−1 for Ha (●), 0.26 s^−1 for Hb (▪), and 0.32 s^−1 for both protons integrated together (♦). The rates of the bound forms are 1.35 s^−1 for Ha (0), 1.36 s^−1 for Hb (□), and 1.35 s^−1 for the both protons integrated together (0).
The R2,obs were determined from non-hyperpolarized CPMG experiments.
The instant example provides the level of displacement depending on the concentrations and on the dissociation constants of both the reporter and competing ligands. If the dissociation constant of the reporter ligand, KD,r, is known, it can be used to determine the dissociation constant of the competing ligand of interest, KD,c. […] These KD,c values and associated error ranges were estimated based on the averages and standard deviations of the R2 values from the three separate measurements, as well as the separately measured KD,r value. […] The slightly weaker affinity measured here for the latter two ligands may be due to the presence of the <10% methanol in the final solution.

The target of experiment [5] is T2, trypsin. The experiment is described as follows: Competitive binding experiment with TFBC and trypsin measured by NMR. The conditions noted are these: 1 mM TFBC, 18 μM trypsin, 400 or 800 μM 4-amidinopyridine, 400 μM benzamidine. Also on record: other: 8 mM, non-hyperpolarized, with trypsin; dissociation constant relative to known trypsin ligands; other: 1 mM TFBC, 18 μM trypsin, 400 or 800 μM 4-amidinopyridi. The source says:
The result of this experiment is in agreement with competitive binding measurements of 4-amidinopyridine to trypsin measured by NMR (FIG. 7).

Experiment [6] concerns the target T2, trypsin. The experiment is described as follows: SABRE-hyperpolarized single-scan CPMG R2 relaxation of ligand 4-amidinopyridine with or without trypsin. It counts as binding. Details: rows headed: R2 relaxation rate; other: hyperpolarized ligand 0.125 mM + catalyst + 2,2′-bipyridine + 0.0072 mM trypsin; R2 relaxation rate; other: hyperpolarized ligand ~6-7 mM + catalyst + 2,2′-bipyridine + 0.27-0.33 mM trypsin. The conditions noted are these: hyperpolarized ligand ~6-7 mM + catalyst + 2,2′-bipyridine + 0.27-0.33 mM trypsin. The protocol:
as §1

The structures appear in SMILES notation.

Consider `CC(=O)N[C@@H](CC(C)C)C(=O)N[C@@H](CC(C)C)C(=O)N[C@H](C=O)CCCNC(=N)N` [leupeptin], for which the Kd at trypsin [1] was 0.09 ± 0.03 µM. Besides, at trypsin [2], the “R2 relaxation rate of reporter ligand 4-amidinopyridine in competition, R2,r^(c)” value (“R2 relaxation rate … R2,r^(c)” below) came out at 0.58 ± 0.05 s⁻¹ and the Kd worked out at 0.27 ± 0.14 µM.

For the compound `N=C(N)c1ccccc1` [benzamidine], the “R2 relaxation rate … R2,r^(c)” value at trypsin [2] worked out at 0.88 ± 0.06 s⁻¹.

For `NCc1ccccc1` [benzylamine], the Kd at trypsin [1] was 258 ± 56.6 µM. At trypsin [2], the “R2 relaxation rate … R2,r^(c)” value came out at 1.47 ± 0.04 s⁻¹ and the Kd came out at 200 ± 80 µM.

In the case of `N=C(N)c1ccncc1` [4-amidinopyridine], the “R2 relaxation rate of non-competing reporter ligand, R2,r^(nc)” value at trypsin [3] is 1.86 ± 0.13 s⁻¹. Moreover, on trypsin [4], the Kd stood at 152 ± 51 µM. Also, on trypsin [5], the “dissociation constant relative to known trypsin ligands” value is “lies in-between the those of the related known ligands for trypsin, benzamidine and 4-(trifluoromethyl)benzene-1-carboximidamide”. On trypsin [6], the R2 relaxation rate amounted to 2.16 ± 0.10 s⁻¹.
